One test has as its system C57BL/6 male mice. Kind of test: Hot-plate assay (acute pain). It is filed as in vivo. The settings on record: morphine 5 mg/kg i.p. The protocol:
The hot-plate test in mice was conducted following previously established method. Six-week-old C57BL/6 male mice were used in hot-plate assay (n = 6). Hot-plate response latency (55°C) after drug treatment was used to measure antinociceptive effect, where response was defined by the animal either by licking paws, flicking paws or jumping. Mice were exposed to the hot plate (Ugo Basile model 7280, Comerio, Italy) for a maximum of 20 s to avoid tissue damage. After three days’ baseline measure, mice were injected intraperitoneally (5 mL/kg) with the solvent mixture, morphine (5 mg/kg) or DK (20, 40 mg/kg) and latency was tested 0.5-, 1-, 2-, 3- and 4- hours post-administration. Evaluation of MOR agonistic and M3R antagonistic activity of DK, naloxone (2 mg/kg) and oxotremorine (0.4 mg/kg) were first injected intraperitoneally, immediately followed by the injection of morphine (5 mg/kg, evaluation of MOR) or DK (20 mg/kg).

The next test deals with T1, M3R (Homo sapiens, UniProt P20309).
T1 construct: expressed in transfected cells; host or cells: HEK293 cell membranes
The test can be described thus: Radioligand binding assay, [3H] NMS. To be noted: [3H] NMS 0.2 nM. The protocol:
Radioligand binding assays were conducted using MicroBeta2 (PerkinElmer, USA). Membrane protein preparations MOR and M3R were each prepared at a concentration of 2.5 µg/well. The radio ligands [^3H] DAMGO (specific for MOR) and [^3H]-NMS (specific for M3R) were prepared at concentrations of 0.5 nM and 0.2 nM, respectively. […] For each well, 1 µL of the serially diluted test compounds was transferred, followed by the addition of 100 µL of membrane stock solution and 100 µL of radioligand. The plates were sealed and shaken at 300 rpm at room temperature for one hour. Upon completion of the binding assay, the contents of each well were filtered through Unifilter-96 GF/C filter plates (PerkinElmer, USA). The filter plates were dried for one hour at 50°C and sealed. The trapped ^3H (tritium) on the filters was then quantified using the MicroBeta2. The percentage of inhibition or binding was subsequently calculated.

T1 sequence (P20309 whole entry): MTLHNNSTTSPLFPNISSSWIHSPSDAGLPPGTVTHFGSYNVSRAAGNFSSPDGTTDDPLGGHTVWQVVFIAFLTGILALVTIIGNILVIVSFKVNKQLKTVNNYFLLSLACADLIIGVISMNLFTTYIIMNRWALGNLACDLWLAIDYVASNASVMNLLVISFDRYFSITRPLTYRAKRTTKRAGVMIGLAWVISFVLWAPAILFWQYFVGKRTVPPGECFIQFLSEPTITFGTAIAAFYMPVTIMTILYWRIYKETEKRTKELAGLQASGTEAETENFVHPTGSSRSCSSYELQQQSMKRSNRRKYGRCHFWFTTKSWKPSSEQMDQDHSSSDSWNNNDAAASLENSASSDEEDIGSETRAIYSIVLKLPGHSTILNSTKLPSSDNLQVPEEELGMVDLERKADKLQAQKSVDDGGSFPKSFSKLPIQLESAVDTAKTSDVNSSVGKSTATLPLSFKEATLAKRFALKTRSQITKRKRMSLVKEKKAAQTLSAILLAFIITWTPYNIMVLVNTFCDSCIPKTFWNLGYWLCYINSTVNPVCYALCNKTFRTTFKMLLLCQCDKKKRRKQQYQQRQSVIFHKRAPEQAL

For the molecule `CN1CC[C@]23c4c5ccc(O)c4O[C@H]2[C@@H](O)C=C[C@H]3[C@H]1C5` [morphine, reference compound], the “time course of antinociception” value in the test on C57BL/6 male mice was “largely reduced after one hour and even disappeared at 3 h”.

Consider `CN1[C@@H]2C[C@@H](OC(=O)[C@H](CO)c3ccccc3)C[C@H]1[C@@H]1O[C@@H]12` [scopolamine, reference compound], for which, at M3R, the “efficacy (maximal inhibition of radioligand binding)” value is recorded as 100%.
